Measured values from article PMC7575509, “Phase I study of DFP-11207, a novel oral fluoropyrimidine with reasonable AUC and low Cmax and improved tolerability, in patients with solid tumors” (Investigational New Drugs, 2020).
Entries after “also recorded” stand apart in the source; their conditions may differ.

Experiments:
[1] = Urine pharmacokinetics, Phase I Study; format: in vivo, human (patients); settings: Cycle 1, 0–48 hours after the DFP-11207 dose of 330 mg/m^2/day
[2] = Plasma pharmacokinetics, Food Effect Study (fed vs fasted); settings: for detectability in plasma during fed and fasted dosing: 6 patients
[3] = Plasma pharmacokinetics, Phase I Study (LC-MS/MS of DFP-11207 metabolites); settings: for AUC(0-t) / Cmax / Tmax / concentration at 2 day (Cycle 1): human, po
[4] = ref 18 (capecitabine), 19 (UFT), 20 (S-1); cited from earlier work

SMILES | urinary excretion [1] [%] | 5-FU Cmax at steady state ([3]; DFP-11207 330 mg/m^2/day orally every 12 hours) [ng/mL] | AUC(0-t) ([3]; plasma, 330 mg/m2) [ng·h/mL] | Cmax ([3]; plasma, 330 mg/m2) [ng/mL] | Tmax ([3]; plasma, 330 mg/m2) [h] | concentration at 2 day (Cycle 1) ([3]; plasma, 330 mg/m^2/day) [ng/mL] | Cmax ([3]; plasma, 440 mg/m2) [ng/mL] | Tmax ([3]; plasma, 440 mg/m2) [h] | concentration at 2 day (Cycle 1) ([3]; plasma, 440 mg/m^2/day) [ng/mL] | blood concentrations maintained throughout the dose cycle ([3]; oral DFP-11207 at 330 and 440 mg/m^2/day) | AUClast, Mean (SD) ([3]; plasma, Day 1, oral DFP-11207 440 mg/m^2) | detectability in plasma during fed and fasted dosing ([2]; DFP-11207 300 mg twice daily) | AUC(0-t) ([3]; plasma, 440 mg/m2) [ng·h/mL] | difference in plasma levels (Cmax or AUClast) between fasted and fed conditions ([2]; DFP-11207 300 mg twice daily, patients serving as their own controls) | difference in plasma levels (Cmax or AUClast) between fasted and fed conditions ([2]; in vivo) | primary dose-limiting toxicity [4]
O=c1[nH]cc(F)c(=O)[nH]1 [5-FU, 5-fluorouracil, reference compound] | 0.12 | < 25 | 220 | 9.65 | 24 | 4.01 to 25.5 | 8.75 | 12 | 3.39 to 13 | approximately 20 ng/mL | 3; 311 (214) ng·h/mL |  |  |  | no influence; also recorded: no clear differences | 
O=C(O)c1cc(O)nc(O)c1 [CTA, citrazinic acid] | 0.07 |  | 254 | 9.81 | 8 |  | 9.72 | 4 |  |  |  |  | 388 | no clear differences |  | 
CCCCCOC(=O)Nc1nc(=O)n([C@@H]2O[C@H](C)[C@@H](O)[C@H]2O)cc1F [capecitabine] |  |  |  |  |  |  |  |  |  |  |  |  |  |  |  | hand-foot syndrome

Further lines, with some results ahead:

urinary excretion [1] [%] | 5-FU Cmax at steady state ([3]; DFP-11207 330 mg/m^2/day orally every 12 hours) [ng/mL] | AUC(0-t) ([3]; plasma, 330 mg/m2) [ng·h/mL] | Cmax ([3]; plasma, 330 mg/m2) [ng/mL] | Tmax ([3]; plasma, 330 mg/m2) [h] | concentration at 2 day (Cycle 1) ([3]; plasma, 330 mg/m^2/day) [ng/mL] | Cmax ([3]; plasma, 440 mg/m2) [ng/mL] | Tmax ([3]; plasma, 440 mg/m2) [h] | concentration at 2 day (Cycle 1) ([3]; plasma, 440 mg/m^2/day) [ng/mL] | blood concentrations maintained throughout the dose cycle ([3]; oral DFP-11207 at 330 and 440 mg/m^2/day) | AUClast, Mean (SD) ([3]; plasma, Day 1, oral DFP-11207 440 mg/m^2) | detectability in plasma during fed and fasted dosing ([2]; DFP-11207 300 mg twice daily) | AUC(0-t) ([3]; plasma, 440 mg/m2) [ng·h/mL] | difference in plasma levels (Cmax or AUClast) between fasted and fed conditions ([2]; DFP-11207 300 mg twice daily, patients serving as their own controls) | SMILES | difference in plasma levels (Cmax or AUClast) between fasted and fed conditions ([2]; in vivo) | primary dose-limiting toxicity [4]
1.98 |  | 2410 | 90.4 | 24 |  | 93.6 | 26 |  |  |  | detectable in plasma at all time points | 2810 |  | Oc1cc(O)c(Cl)cn1 [CDHP, 5-chloro-2,4-dihydroxypyridine] |  | 
0.71 |  | 39900 | 1310 | 48 | 559 to 1380 | 1400 | 24 | 948 to 1770 |  |  | detectable in plasma at all time points | 49400 |  | CCOCn1cc(F)c(=O)[nH]c1=O [EM-FU, 1-ethoxymethyl-5-fluorouracil] |  | 
